The results in this text go back to ChEMBL document CHEMBL1149512, “3-Aryl-4-hydroxyquinolin-2(1H)-one derivatives as type I fatty acid synthase inhibitors” (Bioorg Med Chem Lett, 2006).

A value given as a limit tells only on which side of the number the result lay.

Fatty acid synthase (Homo sapiens, UniProt P49327), sequence (P49327 whole entry): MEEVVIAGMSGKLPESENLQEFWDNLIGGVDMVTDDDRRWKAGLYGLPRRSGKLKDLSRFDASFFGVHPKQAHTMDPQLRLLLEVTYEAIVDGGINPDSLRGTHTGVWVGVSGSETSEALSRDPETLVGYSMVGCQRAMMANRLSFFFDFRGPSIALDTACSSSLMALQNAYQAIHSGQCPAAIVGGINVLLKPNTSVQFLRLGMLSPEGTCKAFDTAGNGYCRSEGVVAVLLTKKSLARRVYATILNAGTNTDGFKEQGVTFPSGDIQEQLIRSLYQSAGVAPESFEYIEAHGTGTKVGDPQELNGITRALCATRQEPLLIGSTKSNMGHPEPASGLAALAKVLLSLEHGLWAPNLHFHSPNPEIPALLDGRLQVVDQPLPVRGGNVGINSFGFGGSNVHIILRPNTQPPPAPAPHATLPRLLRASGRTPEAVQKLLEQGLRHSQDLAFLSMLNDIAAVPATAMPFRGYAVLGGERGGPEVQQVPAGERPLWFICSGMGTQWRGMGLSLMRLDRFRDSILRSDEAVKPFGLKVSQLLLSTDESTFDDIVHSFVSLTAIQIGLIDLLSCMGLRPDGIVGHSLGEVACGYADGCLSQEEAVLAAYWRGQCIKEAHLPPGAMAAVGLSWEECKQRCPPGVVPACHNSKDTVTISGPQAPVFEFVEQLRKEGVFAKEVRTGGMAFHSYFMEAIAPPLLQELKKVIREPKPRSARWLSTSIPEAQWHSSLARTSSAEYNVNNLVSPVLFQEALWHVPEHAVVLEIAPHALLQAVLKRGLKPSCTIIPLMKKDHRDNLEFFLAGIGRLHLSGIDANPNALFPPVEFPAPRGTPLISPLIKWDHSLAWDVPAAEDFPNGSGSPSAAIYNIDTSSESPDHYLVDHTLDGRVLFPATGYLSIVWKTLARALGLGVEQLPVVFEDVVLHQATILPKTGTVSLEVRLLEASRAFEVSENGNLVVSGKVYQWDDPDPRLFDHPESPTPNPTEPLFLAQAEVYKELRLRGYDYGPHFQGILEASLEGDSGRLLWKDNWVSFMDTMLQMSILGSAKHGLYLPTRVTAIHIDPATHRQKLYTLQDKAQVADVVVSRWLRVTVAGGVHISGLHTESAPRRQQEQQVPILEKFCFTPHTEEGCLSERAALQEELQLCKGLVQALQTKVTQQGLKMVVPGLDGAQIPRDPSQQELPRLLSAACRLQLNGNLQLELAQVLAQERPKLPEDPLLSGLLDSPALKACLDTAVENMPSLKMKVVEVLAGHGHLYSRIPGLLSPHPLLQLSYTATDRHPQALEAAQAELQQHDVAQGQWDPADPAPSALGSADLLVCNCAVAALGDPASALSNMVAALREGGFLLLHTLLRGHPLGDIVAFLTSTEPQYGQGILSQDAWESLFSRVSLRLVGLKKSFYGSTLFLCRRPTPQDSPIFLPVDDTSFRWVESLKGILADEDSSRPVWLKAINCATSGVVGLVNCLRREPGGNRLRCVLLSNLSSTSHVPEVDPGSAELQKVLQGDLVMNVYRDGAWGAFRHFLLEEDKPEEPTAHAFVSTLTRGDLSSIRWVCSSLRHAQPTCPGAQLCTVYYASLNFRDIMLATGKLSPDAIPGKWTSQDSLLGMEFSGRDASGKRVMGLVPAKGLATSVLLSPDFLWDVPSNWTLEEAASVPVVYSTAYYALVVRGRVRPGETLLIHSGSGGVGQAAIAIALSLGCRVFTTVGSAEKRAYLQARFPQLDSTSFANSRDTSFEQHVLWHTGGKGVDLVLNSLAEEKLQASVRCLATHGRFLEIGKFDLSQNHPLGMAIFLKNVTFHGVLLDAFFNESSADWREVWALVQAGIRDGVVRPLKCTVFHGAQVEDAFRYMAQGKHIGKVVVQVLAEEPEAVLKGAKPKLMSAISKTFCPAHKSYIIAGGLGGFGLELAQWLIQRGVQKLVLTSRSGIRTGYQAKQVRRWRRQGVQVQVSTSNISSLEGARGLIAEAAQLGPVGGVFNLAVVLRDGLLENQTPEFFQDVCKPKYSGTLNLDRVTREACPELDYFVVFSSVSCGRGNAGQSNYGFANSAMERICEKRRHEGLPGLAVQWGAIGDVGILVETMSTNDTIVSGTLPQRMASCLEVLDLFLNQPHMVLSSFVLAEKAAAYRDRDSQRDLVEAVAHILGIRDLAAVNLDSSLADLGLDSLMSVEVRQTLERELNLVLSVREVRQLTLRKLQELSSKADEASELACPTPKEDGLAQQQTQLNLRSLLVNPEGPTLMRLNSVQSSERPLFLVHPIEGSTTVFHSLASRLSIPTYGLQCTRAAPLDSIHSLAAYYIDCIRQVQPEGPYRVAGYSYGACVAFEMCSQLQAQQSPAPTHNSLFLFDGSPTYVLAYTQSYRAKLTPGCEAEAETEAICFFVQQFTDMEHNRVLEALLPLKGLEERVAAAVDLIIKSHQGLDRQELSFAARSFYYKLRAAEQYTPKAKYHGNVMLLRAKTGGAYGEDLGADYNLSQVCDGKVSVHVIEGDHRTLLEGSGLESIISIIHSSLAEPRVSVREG

The first experiment addresses Fatty acid synthase (Homo sapiens, UniProt P49327). Briefly: Inhibition of human FAS.
In turn, `CS(=O)(=O)c1ccc2[nH]c(=O)c(-c3ccccc3)c(O)c2c1` showed an IC50 of over 15000 nM. Same read-out and setting: for `O=c1[nH]c2ccc(S(=O)(=O)C(F)(F)F)cc2c(O)c1-c1ccccc1` the value was over 15000 nM. On the same count and under the same terms, then `N#Cc1cc(Cl)c2[nH]c(=O)c(-c3ccccc3)c(O)c2c1`, with 402 nM. The compound `O=c1[nH]c2ccc(C(F)(F)F)cc2c(O)c1-c1ccccc1` displayed an IC50 of over 15000 nM. `COc1ccc(CNc2c(-c3ccccc3)c(=O)[nH]c3cc(Cl)c(C#N)cc23)cc1` displayed an IC50 of over 15000 nM. For `N#Cc1cc2c(C#N)c(-c3ccccc3)c(=O)[nH]c2cc1Cl`, the IC50 is over 15000 nM. Compound `N#Cc1ccc2[nH]c(=O)c(-c3ccccc3)c(O)c2c1` registered an IC50 of 1290 nM. `N#Cc1cc2c(O)c(-c3ccccc3)c(=O)[nH]c2cc1Cl` returned a concentration for half-maximal inhibition (IC50) of 136 nM. `N#Cc1cc2c(O)c(-c3cccc(-c4ccc(F)c(F)c4)c3)c(=O)[nH]c2cc1Cl` returned an IC50 of 68 nM.

Regarding `COc1ccccc1-c1cccc(-c2c(O)c3cc(C#N)c(Cl)cc3[nH]c2=O)c1`, the IC50 was 19 nM. In turn, `Cn1cc(-c2cccc(-c3c(O)c4cc(C#N)c(Cl)cc4[nH]c3=O)c2)cn1` returned an IC50 of 734 nM. Regarding `N#Cc1cc2c(O)c(-c3cccc(-c4ccc(F)cc4)c3)c(=O)[nH]c2cc1Cl`, the midpoint of inhibition, the IC50, lay at 54 nM. On to `N#Cc1cc2c(NCc3ccccc3)c(-c3ccccc3)c(=O)[nH]c2cc1Cl`, for which the IC50 was over 15000 nM. In turn, `N#Cc1cc2c(Cl)c(-c3ccccc3)c(=O)[nH]c2cc1Cl` yielded an IC50 of over 15000 nM. As for `CS(=O)(=O)c1cccc(-c2c(O)c3cc(C#N)c(Cl)cc3[nH]c2=O)c1`, the IC50 is 4160 nM. In turn, `N#Cc1cc2c(O)c(-c3cccc(-c4cc(F)cc(F)c4)c3)c(=O)[nH]c2cc1Cl` had an IC50 of 728 nM.

`N#Cc1cc2c(O)c(-c3cccc(-c4ccccc4)c3)c(=O)[nH]c2cc1Cl` had an IC50 of 52 nM. Take `N#Cc1cc2c(O)c(-c3cccc(-c4cccnc4)c3)c(=O)[nH]c2cc1Cl`: 194 nM corresponded to half-maximal inhibition (IC50). Regarding `N#Cc1cc2c(O)c(-c3cccc(-c4csc5ccccc45)c3)c(=O)[nH]c2cc1Cl`, it took 101 nM to reach half-maximal inhibition (IC50).

For the compound `O=c1[nH]c2cc(Cl)c([N+](=O)[O-])cc2c(O)c1-c1ccccc1`, half-maximal inhibition (IC50) required 207 nM.

`N#Cc1cc2c(O)c(-c3cccc(-c4ccc5ccccc5c4)c3)c(=O)[nH]c2cc1Cl`: the IC50 was determined as 127 nM.

The compound `N#Cc1cc2c(N)c(-c3ccccc3)c(O)nc2cc1Cl` displayed an IC50 of over 15000 nM. With `O=c1[nH]c2ccc([N+](=O)[O-])cc2c(O)c1-c1ccccc1`, the IC50 amounted to 1400 nM.

The compound `N#Cc1cc2c(Br)c(-c3ccccc3)c(O)nc2cc1Cl` came in with an IC50 of over 15000 nM.

The target of a further experiment is Fatty acid synthase (Rattus norvegicus, UniProt P12785). Briefly: Inhibition of rat FAS.
Fatty acid synthase (Rattus norvegicus, UniProt P12785), sequence (P12785 whole entry): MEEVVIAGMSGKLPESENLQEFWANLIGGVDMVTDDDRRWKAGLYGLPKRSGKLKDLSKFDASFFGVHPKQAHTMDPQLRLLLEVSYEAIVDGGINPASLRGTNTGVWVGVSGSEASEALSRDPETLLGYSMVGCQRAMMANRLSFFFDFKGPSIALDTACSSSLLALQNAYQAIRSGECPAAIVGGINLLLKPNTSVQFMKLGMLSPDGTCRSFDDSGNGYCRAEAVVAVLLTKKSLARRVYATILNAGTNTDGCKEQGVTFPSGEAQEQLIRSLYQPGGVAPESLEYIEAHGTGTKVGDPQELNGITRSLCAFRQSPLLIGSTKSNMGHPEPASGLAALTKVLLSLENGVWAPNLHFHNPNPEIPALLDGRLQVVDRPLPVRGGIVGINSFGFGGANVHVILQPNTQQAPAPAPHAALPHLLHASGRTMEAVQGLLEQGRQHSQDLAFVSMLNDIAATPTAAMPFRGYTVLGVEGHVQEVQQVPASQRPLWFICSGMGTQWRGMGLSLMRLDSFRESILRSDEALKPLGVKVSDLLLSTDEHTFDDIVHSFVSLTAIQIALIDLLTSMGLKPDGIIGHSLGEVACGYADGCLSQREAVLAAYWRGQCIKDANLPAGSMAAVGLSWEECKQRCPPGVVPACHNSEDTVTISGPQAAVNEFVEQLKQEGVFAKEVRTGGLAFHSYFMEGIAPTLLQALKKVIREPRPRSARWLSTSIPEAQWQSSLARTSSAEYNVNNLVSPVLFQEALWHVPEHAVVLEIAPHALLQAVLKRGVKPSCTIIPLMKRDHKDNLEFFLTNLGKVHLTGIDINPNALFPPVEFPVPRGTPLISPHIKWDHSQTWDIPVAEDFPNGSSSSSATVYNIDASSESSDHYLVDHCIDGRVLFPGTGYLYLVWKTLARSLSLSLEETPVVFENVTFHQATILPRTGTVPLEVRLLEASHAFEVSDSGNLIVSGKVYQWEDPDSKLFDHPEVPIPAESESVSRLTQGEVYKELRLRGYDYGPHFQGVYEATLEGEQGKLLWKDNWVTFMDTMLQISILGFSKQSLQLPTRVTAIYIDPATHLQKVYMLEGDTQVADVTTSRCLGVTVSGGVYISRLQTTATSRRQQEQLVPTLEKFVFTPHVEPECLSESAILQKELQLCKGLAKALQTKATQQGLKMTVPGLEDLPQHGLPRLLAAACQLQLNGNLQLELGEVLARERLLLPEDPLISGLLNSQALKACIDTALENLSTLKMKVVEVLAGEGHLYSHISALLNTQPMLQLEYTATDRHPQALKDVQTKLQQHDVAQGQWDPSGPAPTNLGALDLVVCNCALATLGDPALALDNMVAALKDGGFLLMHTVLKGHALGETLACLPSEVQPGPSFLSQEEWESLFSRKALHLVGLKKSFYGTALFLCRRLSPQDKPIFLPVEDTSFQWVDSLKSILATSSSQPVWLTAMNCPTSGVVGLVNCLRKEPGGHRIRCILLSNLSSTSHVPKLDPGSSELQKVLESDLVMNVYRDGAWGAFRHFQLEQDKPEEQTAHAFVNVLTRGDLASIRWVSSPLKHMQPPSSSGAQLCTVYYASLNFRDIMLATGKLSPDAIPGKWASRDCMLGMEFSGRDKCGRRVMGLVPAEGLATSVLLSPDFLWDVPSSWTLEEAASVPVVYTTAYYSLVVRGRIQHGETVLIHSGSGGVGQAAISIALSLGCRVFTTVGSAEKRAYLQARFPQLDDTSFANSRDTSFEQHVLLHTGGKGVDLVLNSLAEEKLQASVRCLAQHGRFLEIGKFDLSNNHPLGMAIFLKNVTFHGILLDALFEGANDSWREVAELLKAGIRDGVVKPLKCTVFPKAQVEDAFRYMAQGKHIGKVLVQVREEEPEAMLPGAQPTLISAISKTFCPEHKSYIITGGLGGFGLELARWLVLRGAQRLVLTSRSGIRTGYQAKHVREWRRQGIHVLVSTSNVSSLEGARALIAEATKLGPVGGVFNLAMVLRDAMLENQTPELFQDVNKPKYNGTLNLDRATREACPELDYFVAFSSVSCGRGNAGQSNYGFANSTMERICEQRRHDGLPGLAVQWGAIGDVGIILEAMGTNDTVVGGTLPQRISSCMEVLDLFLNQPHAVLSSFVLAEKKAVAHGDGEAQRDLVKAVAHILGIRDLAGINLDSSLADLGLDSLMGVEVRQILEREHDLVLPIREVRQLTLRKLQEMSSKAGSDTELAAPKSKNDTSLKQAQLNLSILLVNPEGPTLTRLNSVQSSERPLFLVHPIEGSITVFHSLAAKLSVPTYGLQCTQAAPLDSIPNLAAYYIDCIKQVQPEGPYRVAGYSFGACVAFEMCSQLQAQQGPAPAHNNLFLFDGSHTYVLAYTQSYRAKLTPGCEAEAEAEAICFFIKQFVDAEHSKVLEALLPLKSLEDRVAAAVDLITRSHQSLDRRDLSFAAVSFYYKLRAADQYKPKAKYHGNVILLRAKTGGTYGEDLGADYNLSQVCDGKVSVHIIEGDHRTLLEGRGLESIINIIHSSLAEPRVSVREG
As for `CS(=O)(=O)c1ccc2[nH]c(=O)c(-c3ccccc3)c(O)c2c1`, the IC50 was over 15000 nM.

For `O=c1[nH]c2ccc(S(=O)(=O)C(F)(F)F)cc2c(O)c1-c1ccccc1`, the IC50 was over 15000 nM. `O=C(O)c1ccc2[nH]c(=O)c(-c3ccccc3)c(O)c2c1`: the half-inhibitory concentration (IC50) was over 15000 nM. The same measure, in the same setting: for `O=c1[nH]c2ccc(C(F)(F)F)cc2c(O)c1-c1ccccc1` the value was over 15000 nM. With `O=c1[nH]c2cc(Cl)c([N+](=O)[O-])cc2c(O)c1-c1ccc(F)cc1F`, it took 173 nM to reach half-maximal inhibition (IC50). On to `O=c1[nH]c2cc(F)c([N+](=O)[O-])cc2c(O)c1-c1ccccc1`, for which the IC50 was determined as 50 nM. In the case of `O=c1[nH]c2cc(Cl)c([N+](=O)[O-])cc2c(O)c1-c1nnn[nH]1`, inhibition was half-maximal at 2600 nM (IC50). Turning to `O=c1[nH]c2cc(Cl)c([N+](=O)[O-])cc2c(O)c1-c1ccc2ccccc2c1`, the IC50 amounted to 6000 nM.

The compound `Cc1cc(-c2c(O)c3cc([N+](=O)[O-])c(Cl)cc3[nH]c2=O)on1` showed a half-maximal inhibitory concentration (IC50) of 3400 nM. Take `O=c1[nH]c2cc(Cl)c([N+](=O)[O-])cc2c(O)c1-c1cc(Cl)cc(Cl)c1`: the IC50 turned out to be 134 nM. Same read-out and setting: for `O=c1[nH]c2cc(Cl)c([N+](=O)[O-])cc2c(O)c1-c1cc(F)cc(F)c1` the value was 172 nM; for `O=c1[nH]c2ccccc2c(O)c1-c1ccccc1`, over 15000 nM; for `O=c1[nH]c2c([N+](=O)[O-])cccc2c(O)c1-c1ccccc1`, 3000 nM.

Take `O=c1cc(O)c2cc([N+](=O)[O-])ccc2[nH]1`: the IC50 was over 15000 nM. With `O=c1[nH]c2cc(Cl)c([N+](=O)[O-])cc2c(O)c1-c1cccs1`, the IC50 amounted to 700 nM. Compound `O=c1[nH]c2cc(Cl)c([N+](=O)[O-])cc2c(O)c1-c1ccc(OCc2ccccc2)cc1` showed an IC50 of 86 nM.

Take `O=c1[nH]c2cc(Cl)c([N+](=O)[O-])cc2c(O)c1-c1ccc(-c2ccccc2)cc1`: the 50% inhibitory concentration (IC50) is 122 nM. On the same count and under the same terms, for `O=c1[nH]c2cc(Cl)c([N+](=O)[O-])cc2c(O)c1-c1ccccc1` the value was 73 nM; for `O=c1[nH]c2ccc([N+](=O)[O-])cc2c(O)c1-c1ccccc1`, 550 nM; for `O=c1[nH]c2cc(Cl)c([N+](=O)[O-])cc2c(O)c1-c1ccc(Cl)cc1Cl`, 443 nM.

The IC50 is the concentration at which inhibition is half-maximal. A higher IC50 goes with weaker potency in that assay.
